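Results reflect a 48-hour exposure of cells in 96-well plates to compound at five concentrations. TGI marks complete inhibition of growth.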
How the values were obtained:
Experiment in all cases: inhibition of tumour cell growth, NCI panel, 48 h
MOLT-4 leukemia = system: MOLT-4 leukemia
EKVX NSCLC = system: EKVX NSCLC
NCI-H23 lung = system: NCI-H23 lung
SN12C renal = system: SN12C renal
KM12 colon = system: KM12 colon
K-562 leukemia = system: K-562 leukemia
TK-10 renal = system: TK-10 renal
BT-549 breast = system: BT-549 breast
UO-31 renal = system: UO-31 renal
HL-60(TB) leukemia = system: HL-60(TB) leukemia

Structure (SMILES)	TGI (MOLT-4 leukemia) [µM]	TGI (EKVX NSCLC) [µM]	TGI (NCI-H23 lung) [µM]	TGI (SN12C renal) [µM]	TGI (KM12 colon) [µM]	TGI (K-562 leukemia) [µM]	TGI (TK-10 renal) [µM]	TGI (BT-549 breast) [µM]	TGI (UO-31 renal) [µM]	TGI (HL-60(TB) leukemia) [µM]
CCN(CC(=O)O)CC(=O)O	> 100	> 100	> 100	> 100	> 100	> 100	> 100	> 100	> 100	
COc1cc(-c2c3c(cc4c2OCO4)[C@@H](Nc2ccc4c(c2)Cc2cc(N[C@@H]5c6cc7c(cc6C(c6cc(OC)c(O)c(OC)c6)[C@H]6C(=O)OC[C@H]56)OCO7)ccc2-4)[C@H]2COC(=O)[C@@H]2C3)cc(OC)c1O (some centres undefined)	> 100	> 100	> 100	> 100	> 100		> 100	94.5	> 100	> 100
CC1(C)[C@@H]2C[C@H]1c1cnc(-c3ccccn3)cc1[C@H]2C(O)[C@@H]1c2cc(-c3ccccn3)ncc2[C@H]2C[C@@H]1C2(C)C (some centres undefined)	0.505	13.3	2.79	1.89	24.7	> 52	> 100	3.8	0.445	0.112
CCOC1NC(=O)c2ccccc21 (centres undefined)	> 100	> 100	> 100	> 100	> 100	> 100	> 100	> 100	> 100	> 100
FC(F)=C(c1ccc(-c2ccc(Cl)cc2)cc1)C(F)(F)F	> 100	41.5	35.4	45.4	36.7	71.9	29.4	39.3	31	> 100
COc1ccc(N2C(=O)C3c4[nH]c5ccccc5c4C4C(C)CCCC4C3C2=O)cc1 (centres undefined)	> 100	> 100	> 100	> 100	> 100	> 100	> 100	> 33.6	> 100	
COc1cc(/C=C/C(=O)O)ccc1OS(=O)(=O)O	> 100	> 100	> 100	> 100	> 100	> 100	> 100	> 100	> 100	> 100
O=c1c(Cc2ccccc2)c(-c2ccccc2)[nH]n1C1=NCCN1	> 100	> 100	> 100		> 100	> 100	> 100	> 100	> 100	> 100
COC1OC2COC(C)(C)OC2C2OC(C)(C)OC12 (centres undefined)	87.9	> 100	> 100	67.1	> 100	> 100	> 100	> 100	> 100	
O=S1(=O)c2ccccc2NC(=S)N1c1ccccc1	> 100	> 100	> 100	> 100	> 100	> 100	> 100	99.2	> 100	> 100
COC(=O)C1=C(C(=O)OC)C2(C)CCC(=O)C1O2 (centres undefined)	> 10	> 10	> 10	> 10	> 10	> 10	> 10	> 10	> 10	> 10
N/C(CSCCSC/C(N)=N/O)=N\O	> 100	> 100	> 100	> 100	> 100	> 100	> 100	> 100	> 100	> 100
COc1cc2nc(-c3c(F)cccc3F)n(Cc3c(F)cccc3F)c2cc1Cc1c(F)cccc1F	> 100	> 100	> 100	> 100	> 100	> 100	> 100	> 100	> 100	> 100
COC(=O)[C@H]1C=C[C@H](OC2OC(COC(C)=O)C(OC(C)=O)C(OC(C)=O)C2OC(C)=O)n2c(=O)n(-c3ccccc3)c(=O)n21 (some centres undefined)	6.16	7.37	15.6	19.9	25.1	4.91	15.4	9.14	4.96	> 100
CCN(C(=O)N[C@H](C(=O)N[C@@H](C)C(=O)OC)C(C)C)c1ccccc1	> 100	> 100	> 100	> 100	> 100	> 100	98.6	> 100	> 100	> 100
OCC1OC(O[C@H]2CN3[C@H](O)[C@@H](O)[C@H](O)[C@H]3C2O)C(O)C(O)C1O (some centres undefined)	> 100	> 100	> 100	> 100	> 100	> 100	> 100	> 100	> 100	> 100
c1ccc(-c2ccc(N=NN3CCCC3)cc2)cc1	> 100	> 100	> 100	> 100	> 100	> 100	> 100	> 100	> 100	
CC[P+](C#Cc1ccccc1)(c1ccccc1)c1ccccc1	3.93	11.9	7.51	5.41	3.29	0.74	7.09	3.43	27	1.05
COc1cc2c(cc1O)CC[n+]1cc3c(OC)c(OC)ccc3cc1-2	> 100	> 100	> 100	> 100	> 100	> 100	> 100	> 100	> 100	> 100
NC(=S)N=Nc1c(O)cc(Nc2ccc(Cl)cc2Cl)c2ccccc12	> 100	94.4	97.7	> 100	> 100		> 100	97.5	> 100	> 100
NS(=O)(=O)c1nnc(NSc2ccc([N+](=O)[O-])cc2)s1	> 100	> 100	> 100	> 100		> 100	> 100	> 100	> 100	
CC(C)(C)OC(=O)c1ccc(NCc2cc(O)ccc2O)cc1	11.2	12	16.8	5.28	12.2	38.1	6.07	6.9	2.51	4.08

Structure (SMILES)	TGI (MOLT-4 leukemia) [µM]	TGI (EKVX NSCLC) [µM]	TGI (NCI-H23 lung) [µM]	TGI (SN12C renal) [µM]	TGI (KM12 colon) [µM]	TGI (K-562 leukemia) [µM]	TGI (TK-10 renal) [µM]	TGI (BT-549 breast) [µM]	TGI (UO-31 renal) [µM]	TGI (HL-60(TB) leukemia) [µM]
COC(=O)C(CCSC)NC(=O)CSc1nnc(COc2ccc(Cl)cc2)n1-c1ccccc1 (centres undefined)	43	75.3	34.9	33.1	34.4	69.9	33.3	37.4	13.7	38.6
CC/C=C\C/C=C\C/C=C\CCCCCCCC(=O)OC(COC(=O)CCCCCCCCCCCCCCCCC)COC1OC(CO)C(O)C(O)C1O (centres undefined)	> 25	> 25	> 25	> 25	> 25	> 25	> 25	> 25	> 25	> 25
O=C(NCCCNCCCCNCCCNC(=O)C(F)(F)F)C(F)(F)F		> 100	> 100	> 100	> 100		> 100	> 100	> 100	> 100
CC(C)(C)c1ccc2c(c1)OCc1n[nH]c(n1)COc1cc(C(C)(C)C)ccc1OCCOCCO2	17.6	17.7	12.5	16.7	15.1	> 100	8.14	10.9	13.1	> 100
O=[N+]([O-])c1ccc2nc3c(nc2c1)-c1c2ccccc2cc2cccc-3c12	31.7	> 100	24.5	> 100	> 100	> 85.9	> 100	17.9	> 70.9	> 100
Cc1cc2c(cc1Cl)SC(NNc1cnc3ccccc3n1)=NS2(=O)=O	63.5	> 100	> 100	> 100	> 100	> 100	> 100	> 100	> 100	> 100
CC1=CCC[C@H]2[C@](C)(CC3=CC(=O)C4SCCSC4C3=O)[C@@H](C)CC[C@]12C (some centres undefined)	80.7	54.4	31.9	28.8	> 100	96.2		39.7	40.1	
O=C(CN=C(CN(c1ccccc1)c1ccccc1)Oc1c(Cl)cc(Cl)cc1Cl)n1cnc2ccccc21	> 100	> 100	> 100	> 100	> 100	> 100	> 100	> 100		> 100
O=c1oc2ccccc2c2nc3ccccc3cc12	> 100	> 100	> 100	> 100	> 100	> 100	> 100	> 100	> 100	> 100
O=C1NN=C(c2c[nH]c3ccccc23)CC1NCc1ccccc1 (centres undefined)	> 100		> 100	> 100	> 100	> 100	> 100	> 100	> 100	> 100
C[C@@H]1C(=O)CC2(O)[C@@]13C[C@@H](OC(=O)[C@@H]3O)[C@@H](C)[C@@]21COC1=O (some centres undefined)	> 100	> 100	> 100	> 100	> 100	> 100	> 100	> 100	> 100	> 100
CCOC(=O)Cc1nn2c(=O)cc(C)nc2s1	> 100	> 100	> 100	> 100	> 100	> 100	> 100	> 100	> 100	> 100
Cc1ccsc1C(=S)Nc1ccc(Cl)c(C(=O)OC(C(C)C)C(C)C)c1	55.6	> 100	> 100	> 100	> 100	> 100	> 100	61.4	> 100	31.5
COC(=O)C(CCCCNC(=O)CNC(=O)OCc1ccccc1)NC(=O)C(CCCCNC(=O)CNC(=O)OCc1ccccc1)NC(=O)OCc1ccccc1 (centres undefined)	> 100		> 100	> 100		> 100	> 100	> 100	> 100	> 100
CCOP(=O)(OCC)c1cc(-c2ccccc2)ccc1N	> 100	> 100	> 100		> 100	> 100	> 100	> 100	> 100	
Brc1ccc2c(c1)-c1nc3c(cc1CC2)CCc1ccc(Br)cc1-3	> 100	> 100	> 100	> 100	> 100	> 100	> 100	> 100	> 100	
CC1=C(C(=O)NNC(=O)CC#N)CC(C(=O)NNC(=O)CC#N)=C(C)N1	> 100	> 100	> 100	> 100	> 100		> 100	> 100	> 100	> 100
COC(=O)c1sc2ncc3c(c2c1N)CC(C)CC3 (centres undefined)	> 100	> 100	> 100	> 100	> 100	> 100	> 100	> 100	> 100	
CCCC[C@@H]1CCN2C[C@@H](O)[C@@H](O)[C@H]2[C@@H]1O	> 100	> 100	> 100		> 100	> 100	> 100	> 100	> 100	> 100
NNC(=O)c1cccc2c1Oc1ccccc1S2	> 100	> 100	> 100		> 100	> 100	> 100	> 100	> 100	> 100
Cc1ccc(-n2cc(-c3ccc(Cl)cc3)c3c2N=CN2NC(c4ccco4)=NC32)cc1 (centres undefined)		> 100	72.4	> 100		> 100	28.7	99.2	47.5	> 100

Source: PubChem BioAssay (NCI)
